Assay [1] addresses T1, 5-hydroxytryptamine receptor 1A (Homo sapiens) (UniProt P08908).
T1 sequence (whole entry): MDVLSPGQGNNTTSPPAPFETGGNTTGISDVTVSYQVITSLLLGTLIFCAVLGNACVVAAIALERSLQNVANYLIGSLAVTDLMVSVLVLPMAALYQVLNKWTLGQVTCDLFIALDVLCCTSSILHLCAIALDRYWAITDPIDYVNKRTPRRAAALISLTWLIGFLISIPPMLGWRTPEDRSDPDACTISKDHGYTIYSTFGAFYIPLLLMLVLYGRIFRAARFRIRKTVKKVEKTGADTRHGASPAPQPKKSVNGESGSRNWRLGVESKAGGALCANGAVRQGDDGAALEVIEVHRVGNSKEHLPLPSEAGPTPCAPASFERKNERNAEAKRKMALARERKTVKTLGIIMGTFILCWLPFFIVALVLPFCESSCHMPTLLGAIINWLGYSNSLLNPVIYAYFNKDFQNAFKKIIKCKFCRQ
The note with it: HeLa.
Description: Agonist activity at human recombinant 5HT1A receptor expressed in human HeLa cells assessed as increase in [35S]GTPgammaS binding incubated for 20 mins by liquid scintillation counter

Assay [2] has as its target T2, Alpha-1B adrenergic receptor (Homo sapiens, UniProt P35368).
T2 sequence (P35368 whole entry): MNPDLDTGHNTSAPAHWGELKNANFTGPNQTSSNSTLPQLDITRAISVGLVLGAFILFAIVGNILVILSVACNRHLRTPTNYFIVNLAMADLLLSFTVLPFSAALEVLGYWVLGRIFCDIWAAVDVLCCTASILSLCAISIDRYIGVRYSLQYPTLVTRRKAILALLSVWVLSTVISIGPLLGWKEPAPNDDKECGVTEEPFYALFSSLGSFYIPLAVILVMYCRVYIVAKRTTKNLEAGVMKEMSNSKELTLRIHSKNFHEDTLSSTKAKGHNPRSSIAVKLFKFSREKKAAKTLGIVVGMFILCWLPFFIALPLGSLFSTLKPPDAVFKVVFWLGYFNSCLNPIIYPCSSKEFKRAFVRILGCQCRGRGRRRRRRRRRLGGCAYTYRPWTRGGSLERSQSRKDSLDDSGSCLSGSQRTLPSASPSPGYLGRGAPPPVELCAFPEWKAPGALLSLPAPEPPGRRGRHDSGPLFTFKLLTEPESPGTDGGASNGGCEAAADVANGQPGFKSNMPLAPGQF
The assay is described as follows: Displacement of [3H] prazosin from human cloned adrenoceptor alpha 1B expressed in CHO cell membrane incubated for 30 mins by liquid scintillation counter. A general note: Loss of bound radioactivity is the signal in a displacement assay; it reports binding, not function.

Assay [3] deals with T3, Alpha-1D adrenergic receptor (Homo sapiens, UniProt P25100).
T3 sequence (P25100 whole entry): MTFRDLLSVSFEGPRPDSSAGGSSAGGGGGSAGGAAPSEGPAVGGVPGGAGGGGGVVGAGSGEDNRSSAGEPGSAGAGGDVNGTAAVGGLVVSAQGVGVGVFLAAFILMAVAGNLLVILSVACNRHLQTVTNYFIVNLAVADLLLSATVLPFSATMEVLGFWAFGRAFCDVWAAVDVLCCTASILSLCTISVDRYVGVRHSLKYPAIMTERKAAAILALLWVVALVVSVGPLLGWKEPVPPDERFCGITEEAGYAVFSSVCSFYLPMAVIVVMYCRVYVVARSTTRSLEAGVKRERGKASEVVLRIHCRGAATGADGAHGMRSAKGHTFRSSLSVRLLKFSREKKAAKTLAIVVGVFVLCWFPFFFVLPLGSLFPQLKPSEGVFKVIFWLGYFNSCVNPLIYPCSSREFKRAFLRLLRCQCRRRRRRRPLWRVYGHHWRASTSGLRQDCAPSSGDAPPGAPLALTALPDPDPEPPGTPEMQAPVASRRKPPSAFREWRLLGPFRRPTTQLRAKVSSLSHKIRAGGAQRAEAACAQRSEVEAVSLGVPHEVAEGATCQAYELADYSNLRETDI
The assay can be described thus: biochemical.
Description: Displacement of [3H] prazosin from human cloned adrenoceptor alpha 1D expressed in CHO cell membrane incubated for 30 mins by liquid scintillation counter

The target of assay [4] is T4, 5-hydroxytryptamine receptor 1A (Homo sapiens, UniProt P08908).
T4 sequence (P08908 whole entry): T1 sequence (whole entry)
The assay can be described thus: Displacement of [3H]8-OH-DPAT from human cloned 5HT-1AR transfected in HeLa cells incubated for 30 mins by liquid scintillation counter. It counts as cell-based.

The target in assay [5] is T5, Alpha-1A adrenergic receptor (Rattus norvegicus) (UniProt P43140).
T5 sequence (whole entry): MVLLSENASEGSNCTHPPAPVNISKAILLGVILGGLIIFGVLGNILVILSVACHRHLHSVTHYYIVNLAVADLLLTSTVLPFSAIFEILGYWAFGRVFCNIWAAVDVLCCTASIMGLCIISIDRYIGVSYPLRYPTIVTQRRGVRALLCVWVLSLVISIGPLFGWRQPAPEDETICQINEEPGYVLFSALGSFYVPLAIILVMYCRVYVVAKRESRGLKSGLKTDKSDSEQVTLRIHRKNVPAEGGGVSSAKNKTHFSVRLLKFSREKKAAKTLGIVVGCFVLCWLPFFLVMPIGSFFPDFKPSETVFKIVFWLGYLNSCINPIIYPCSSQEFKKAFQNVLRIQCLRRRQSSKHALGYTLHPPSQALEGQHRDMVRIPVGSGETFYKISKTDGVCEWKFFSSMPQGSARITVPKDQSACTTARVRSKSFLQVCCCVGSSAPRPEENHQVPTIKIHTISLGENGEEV
The assay is described as follows: Antagonist activity at alpha-1a adrenergic receptor in Wistar rat prostatic vas deferens assessed as inhibition of (-)-noradrenaline-induced contraction.

Assay [6] addresses T6, Alpha-1A adrenergic receptor (Homo sapiens, UniProt P35348).
T6 sequence (P35348 whole entry): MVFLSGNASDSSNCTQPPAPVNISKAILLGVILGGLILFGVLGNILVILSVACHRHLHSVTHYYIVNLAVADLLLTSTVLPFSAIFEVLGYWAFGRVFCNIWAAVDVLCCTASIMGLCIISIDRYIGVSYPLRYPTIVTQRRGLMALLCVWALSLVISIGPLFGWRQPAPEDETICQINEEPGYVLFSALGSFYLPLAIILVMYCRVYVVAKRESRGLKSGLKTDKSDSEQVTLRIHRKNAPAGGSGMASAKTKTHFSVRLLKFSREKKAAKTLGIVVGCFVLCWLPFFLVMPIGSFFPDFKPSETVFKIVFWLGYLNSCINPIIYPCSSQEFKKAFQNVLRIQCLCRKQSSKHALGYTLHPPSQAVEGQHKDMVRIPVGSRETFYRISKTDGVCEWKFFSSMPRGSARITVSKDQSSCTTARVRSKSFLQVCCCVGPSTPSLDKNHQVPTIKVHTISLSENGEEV
The assay can be described thus: biochemical.
Description: Displacement of [3H] prazosin from human cloned adrenoceptor alpha 1A expressed in CHO cell membrane incubated for 30 mins by liquid scintillation counting

SMILES strings stand for the structures. Some results are limits rather than exact numbers.

Broadly, the Ki is a measure of affinity in units of concentration, obtained from inhibition or displacement. Low readings indicate higher affinity, high ones lower affinity. One may read the pKb as −log10 of the Kb, conventionally taken in molar units. Regarding `COc1ccccc1OCCNCC[C@@H]1CO[C@H](C(c2ccccc2)c2ccccc2)O1` (relative stereo), in assay [1], the pD2 was determined as 5.86. The Ki in assay [2] was 64.6 nM; in assay [3] it was 16.6 nM; in assay [4], 25.7 nM; in assay [6], 50.1 nM. Besides, the pKb in assay [5] stood at 6.58.
As to `COc1ccccc1OCCNCCOC(c1ccccc1)c1ccccc1`, the pD2 in assay [1] stood at 7.38. The Ki was 3020 nM in assay [2], 10 nM in assay [3], 7.24 nM in assay [4] and 44.7 nM in assay [6]. Moreover, the pKb in assay [5] came out at 6.18.
For `c1ccc(OCCNCC2COC(c3ccccc3)(c3ccccc3)OC2)cc1`, the pD2 in assay [1] was 5.87. Besides, the Ki in assay [2] was 282 nM; in assay [3], 178 nM; in assay [4] it was 23.4 nM; in assay [6], 288 nM. Moreover, the negative logarithm of the Kb (pKb) in assay [5] was found to be 5.52.
`COc1ccccc1OCCNCC[C@H]1CO[C@H](C(c2ccccc2)c2ccccc2)O1` (relative stereo) had a pD2 in assay [1] of 6.24. Moreover, the Ki in assay [2] was 30.9 nM; in assay [3] it was 15.8 nM; in assay [4] it was 15.5 nM; in assay [6] it was 60.3 nM. The negative-log Kb (pKb) in assay [5] is 6.23.
`OCC(CNCCOc1ccccc1)OC(c1ccccc1)c1ccccc1` (stereo unspecified): the pD2 in assay [1] was 7.51. Also, the Ki in assay [2] was 2290 nM; in assay [3] it was 57.5 nM; in assay [4], 4.57 nM; in assay [6], 141 nM. The pKb in assay [5] was under 5.
In assay [1], `COc1ccccc1OCCNCCC1COC(c2ccccc2)(c2ccccc2)O1` (stereo unspecified) showed a pD2 of 6.16. The inhibition constant (Ki) in assay [2] was 14.8 nM; in assay [3] it was 5.75 nM; in assay [4], 0.501 nM; in assay [6], 7.24 nM. Besides, in assay [5], the pKb came out at 6.74.
With `COc1ccccc1OCCNCC1COC(c2ccccc2)(c2ccccc2)OC1.O=C(O)C(=O)O`, the pD2 in assay [1] is 9.22. Further, the Ki in assay [2] is 31.6 nM; in assay [3] it was 25.1 nM; in assay [4] it was 1.62 nM; in assay [6], 33.9 nM. Moreover, the pKb in assay [5] was found to be 5.98.
`c1ccc(OCCNCC2CCOC(c3ccccc3)(c3ccccc3)O2)cc1` (stereo unspecified) yielded a pD2 in assay [1] of 7.85. For the same compound, the Ki in assay [2] was 56.2 nM; in assay [3], 5.01 nM; in assay [4], 1.86 nM; in assay [6], 38.9 nM. For the same compound, in assay [5], the pKb came to 6.12.
As to `COc1ccccc1OCCNCC1CCOC(c2ccccc2)(c2ccccc2)O1` (stereo unspecified), in assay [1], the pD2 amounted to 8.49. For the same compound, the Ki in assay [2] was 15.8 nM; in assay [3], 1.02 nM; in assay [4], 0.776 nM; in assay [6], 24.5 nM. Also, in assay [5], the pKb worked out at 6.99.
Regarding `COc1ccccc1OCCNCC(CO)OC(c1ccccc1)c1ccccc1` (stereo unspecified), the pD2 in assay [1] was 7.53. Also, the Ki was 91.2 nM in assay [2], 5.89 nM in assay [3], 1.55 nM in assay [4] and 83.2 nM in assay [6]. For the same compound, the pKb in assay [5] came out at 6.51.
For the compound `c1ccc(OCCNCCOC(c2ccccc2)c2ccccc2)cc1`, the pD2 in assay [1] worked out at 7.85. The Ki in assay [2] is 25.1 nM; in assay [3], 1.2 nM; in assay [4] it was 1.35 nM; in assay [6], 17 nM. Further, the negative logarithm of the Kb (pKb) in assay [5] is 7.65.

For the origin of these results see ChEMBL document CHEMBL4350985, “1,3-Dioxane as a scaffold for potent and selective 5-HT1AR agonist with in-vivo anxiolytic, anti-depressant and anti-nociceptive activity” (Eur J Med Chem, 2019).
